Some test systems named below: A498; A549; COLO 205; EKVX; HOP-62; LOX IMVI; MDA-MB-231; NCI-H226; NCI-H23; OVCAR-5; OVCAR-8; RXF 393; SF-268; SF-539; SK-OV-3; SNB-19; SNB-75; SW-620; UACC-62; UO-31.
Holding throughout (assay): inhibition of tumour cell growth, NCI panel, 48 h

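Each compound was tested at five concentrations against cells in 96-well plates for 48 hours. GI50: concentration for 50% inhibition of growth.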 Activity calls are given as the source filed them. Rule as the data show it: active = GI50 up to about 1.1 µM and inactive = higher. Bounds are passed on as bounds.

As to `COc1cc(/C=C2\C[C@H]3[C@@H]4CCc5cc(O)ccc5[C@H]4CC[C@]3(C)C2=O)cc(OC)c1OC`, the GI50 in the assay on A498 was 32.4 µM (inactive); with A549, 15.6 µM (inactive); in the assay on COLO 205, 16.7 µM (inactive); in the assay on EKVX, 10.1 µM (inactive); in the assay with HOP-62 it was 12.4 µM (inactive); in the assay with LOX IMVI, 15.5 µM (inactive). In addition, the GI50 in the assay on MDA-MB-231 was 14.3 µM (inactive); with NCI-H226, 6.05 µM (inactive); in the assay with NCI-H23, 14.4 µM (inactive); with OVCAR-5 it was 17.7 µM (inactive); in the assay on OVCAR-8, 15.5 µM (inactive); with RXF 393, 9.57 µM (inactive). Besides, the GI50 with SF-268 is 8.73 µM (inactive); in the assay with SF-539 it was 25.8 µM (inactive); in the assay with SK-OV-3, 21.2 µM (inactive); in the assay on SNB-19 it was 19.9 µM (inactive); with SNB-75, 12.2 µM (inactive); in the assay with SW-620, 16.7 µM (inactive). Besides, the GI50 in the assay with UACC-62 is 22.7 µM (inactive); in the assay on UO-31 it was 11.6 µM (inactive).
As for `CN1C2CCC1CC(CCNC(c1ccccc1)c1ccccc1)C2` (stereo not given), the GI50 in the assay with A498 is 23.8 µM (inactive); with A549 it was 71 µM (inactive); in the assay on COLO 205 it was 11.5 µM (inactive); with EKVX, 24.9 µM (inactive); with HOP-62, 19.7 µM (inactive); with LOX IMVI, 20.2 µM (inactive). The GI50 is 22.2 µM (inactive) in the assay on MDA-MB-231; 36.9 µM (inactive) with NCI-H226; > 100 µM (inactive) in the assay on NCI-H23; > 100 µM (inactive) with OVCAR-5; 57 µM (inactive) with OVCAR-8; 14.4 µM (inactive) in the assay on RXF 393. The GI50 was 35.3 µM (inactive) in the assay on SF-268; 17.9 µM (inactive) in the assay with SF-539; > 100 µM (inactive) with SK-OV-3; > 100 µM (inactive) in the assay with SNB-19; 47.2 µM (inactive) in the assay on SNB-75; 79.6 µM (inactive) in the assay with SW-620. The GI50 in the assay with UO-31 is 17.2 µM (inactive).
For `C#CC1(O)C(COP(=O)(O)OC(COCCCCCCCCCCCCCCCCCC)COP(=O)(O)OCC2OC(n3cc(C)c(=O)[nH]c3=O)CC2N=[N+]=[N-])OC(n2ccc(N)nc2=O)C1O` (stereo not given), the GI50 in the assay with A498 was 1.69 µM (inactive); with A549, 0.29 µM (active); in the assay with COLO 205, 0.512 µM (active); in the assay on EKVX it was 5.25 µM (inactive); with HOP-62, 1.82 µM (inactive); with LOX IMVI, 0.224 µM (active). The GI50 with MDA-MB-231 is 2.39 µM (inactive); in the assay with NCI-H226, 1.56 µM (inactive); in the assay with NCI-H23, 2.61 µM (inactive); in the assay with OVCAR-5, 3.28 µM (inactive); with OVCAR-8 it was 0.881 µM (active); in the assay on RXF 393 it was 1.37 µM (inactive). Also, the GI50 with SF-268 was 0.957 µM (active); in the assay on SF-539, 0.282 µM (active); with SK-OV-3, 4 µM (inactive); in the assay on SNB-19 it was 1.8 µM (inactive); with SNB-75 it was 2.52 µM (inactive); in the assay on SW-620, 0.453 µM (active). Moreover, the figures for the GI50 in the assay with UACC-62 and with UO-31 were 1.88 µM (inactive) and 0.194 µM (active), respectively.
`NS(=O)(=O)c1ccc(NNc2c3ccccc3nc3c(C(=O)Nc4ccc(S(N)(=O)=O)cc4)cccc23)cc1`: the GI50 with A498 was > 100 µM (inactive); in the assay with A549, > 100 µM (inactive); in the assay with COLO 205 it was 39.9 µM (inactive); in the assay with EKVX, 42.8 µM (inactive); with HOP-62 it was 57.3 µM (inactive); in the assay on LOX IMVI it was 11.5 µM (inactive). Further, the GI50 in the assay with MDA-MB-231 is 21.6 µM (inactive); with NCI-H226 it was 37.6 µM (inactive); in the assay on NCI-H23, 28.8 µM (inactive); in the assay with OVCAR-5, 62.7 µM (inactive); in the assay with OVCAR-8 it was 26.5 µM (inactive); in the assay with RXF 393 it was 6.73 µM (inactive). Further, the GI50 with SF-268 is 16.2 µM (inactive); in the assay on SF-539 it was 25.7 µM (inactive); in the assay with SK-OV-3, 50 µM (inactive); with SNB-19, 33.5 µM (inactive); in the assay on SNB-75, 14.5 µM (inactive); in the assay on SW-620, 15.3 µM (inactive). For the same compound, the GI50 in the assay on UACC-62 is 22.2 µM (inactive); with UO-31 it was 63 µM (inactive).
Take `CC12C(=O)OC(=O)C1(C)C1C=CC2O1` (stereo not given): the GI50 is > 100 µM (inactive) in the assay with A498; > 100 µM (inactive) in the assay with A549; > 100 µM (inactive) in the assay with COLO 205; > 100 µM (inactive) in the assay on EKVX; > 100 µM (inactive) in the assay with LOX IMVI; 42.6 µM (inactive) with MDA-MB-231. The GI50 with NCI-H226 is 21.7 µM (inactive); with NCI-H23 it was > 100 µM (inactive); in the assay with OVCAR-5 it was > 100 µM (inactive); in the assay with OVCAR-8, > 100 µM (inactive); in the assay with RXF 393, 40.6 µM (inactive); with SF-268 it was 59.7 µM (inactive). The GI50 with SF-539 is > 100 µM (inactive); in the assay on SK-OV-3 it was > 100 µM (inactive); with SNB-19, 37.8 µM (inactive); in the assay with SNB-75 it was 14.9 µM (inactive); with SW-620, > 100 µM (inactive); with UACC-62, > 100 µM (inactive). Also, the GI50 in the assay with UO-31 was 62.1 µM (inactive).
`CC(C)/C(Cl)=N\OC(=O)Nc1ccc(C#N)cc1`: the GI50 is 14.5 µM (inactive) with A498; 20 µM (inactive) in the assay with A549; 1.79 µM (inactive) in the assay with COLO 205; 2.58 µM (inactive) in the assay on EKVX; 17.5 µM (inactive) with HOP-62; 3.3 µM (inactive) with LOX IMVI. The GI50 in the assay on MDA-MB-231 is 14.6 µM (inactive); in the assay on NCI-H226, 13.1 µM (inactive); in the assay on NCI-H23 it was 15.2 µM (inactive); with OVCAR-5 it was 15.1 µM (inactive); in the assay on OVCAR-8, 16.7 µM (inactive); in the assay on RXF 393, 1.85 µM (inactive). The GI50 with SF-268 was 19.2 µM (inactive); with SF-539, 15.9 µM (inactive); in the assay on SK-OV-3, 17.3 µM (inactive); with SNB-19 it was 18.3 µM (inactive); in the assay with SNB-75 it was 17.7 µM (inactive); in the assay on SW-620 it was 1.81 µM (inactive). The GI50 is 17 µM (inactive) with UACC-62 and 9.02 µM (inactive) in the assay with UO-31.
On to `COC1(OC)C2(Cl)C(Cl)=C(Cl)C1(Cl)C1COCC12` (stereo not given), for which the GI50 with A498, in the assay with A549, in the assay on COLO 205, in the assay with HOP-62, with LOX IMVI and in the assay on MDA-MB-231 was > 100 µM (inactive) throughout. The GI50 with NCI-H226 is > 100 µM (inactive); with NCI-H23 it was > 45 µM (inactive); with OVCAR-5, > 100 µM (inactive); in the assay with OVCAR-8 it was > 100 µM (inactive); in the assay on RXF 393, > 100 µM (inactive); with SF-268, > 100 µM (inactive). The GI50 with SF-539, with SK-OV-3, with SNB-19, in the assay with SNB-75, in the assay on SW-620 and in the assay with UACC-62 was > 100 µM (inactive) each time. The GI50 in the assay on UO-31 is > 100 µM (inactive).
Consider `N=C(N)SCCN1CCCCC1`, for which the GI50 in the assay with A498 was 48.6 µM (inactive); in the assay with A549, 56 µM (inactive); with COLO 205, > 100 µM (inactive); in the assay with EKVX, 60.3 µM (inactive); in the assay with HOP-62, 46.5 µM (inactive); with LOX IMVI, 20.2 µM (inactive). The GI50 in the assay on MDA-MB-231 is 22.8 µM (inactive); in the assay on NCI-H226 it was 21.4 µM (inactive); in the assay on NCI-H23, 26.1 µM (inactive); in the assay on OVCAR-5, 86.1 µM (inactive); with OVCAR-8, 28.6 µM (inactive); in the assay on RXF 393, 16.1 µM (inactive). Further, the GI50 is 24.4 µM (inactive) with SF-268; 35.7 µM (inactive) in the assay on SF-539; 46.8 µM (inactive) with SK-OV-3; 37.4 µM (inactive) in the assay with SNB-75; 29.8 µM (inactive) in the assay on SW-620; 23.4 µM (inactive) in the assay with UACC-62. Further, the GI50 with UO-31 was 25.5 µM (inactive).
As to `c1ccc(C2=C(c3ccccc3)Sc3nnc(CCCCCCCCc4nnc5n4NC(c4ccccc4)=C(c4ccccc4)S5)n3N2)cc1`, the GI50 in the assay with A498 is > 100 µM (inactive); in the assay with A549, 34.7 µM (inactive); in the assay on COLO 205, 45.3 µM (inactive); in the assay with EKVX it was 35.5 µM (inactive); with HOP-62 it was > 100 µM (inactive); in the assay with LOX IMVI it was 48.2 µM (inactive). For the same compound, the GI50 with MDA-MB-231 was 95.9 µM (inactive); in the assay on NCI-H226, > 100 µM (inactive); with NCI-H23, 49 µM (inactive); in the assay on OVCAR-5 it was > 100 µM (inactive); with OVCAR-8 it was 48.6 µM (inactive); with RXF 393, 50.4 µM (inactive). In addition, the GI50 in the assay on SF-268 was 83 µM (inactive); in the assay with SF-539, > 100 µM (inactive); in the assay with SK-OV-3, > 100 µM (inactive); with SNB-19 it was 54.6 µM (inactive); with SNB-75, 63.2 µM (inactive); in the assay with SW-620, > 100 µM (inactive). Further, the figures for the GI50 with UACC-62 and in the assay with UO-31 were 46.6 µM (inactive) and 27.4 µM (inactive), respectively.
As to `Clc1ccc(Cc2nc3cc(Cl)c(Cl)cc3n2CC2CCCN3CCCCC23)cc1Cl` (stereo not given), the GI50 in the assay with A498 was 8.17 µM (inactive); with A549 it was 4.93 µM (inactive); with COLO 205 it was 1.94 µM (inactive); in the assay with EKVX it was 3.28 µM (inactive); in the assay on HOP-62, 9.14 µM (inactive); with LOX IMVI, 2.44 µM (inactive). Besides, the GI50 was 3.27 µM (inactive) with MDA-MB-231; 7.16 µM (inactive) in the assay with NCI-H226; 3.13 µM (inactive) in the assay on OVCAR-5; 6.32 µM (inactive) in the assay on OVCAR-8; 7.53 µM (inactive) in the assay on RXF 393; 3.32 µM (inactive) with SF-268. In addition, the GI50 was 1.98 µM (inactive) with SF-539; 1.11 µM (active) in the assay with SK-OV-3; 2.9 µM (inactive) in the assay on SNB-19; 4.53 µM (inactive) in the assay with SNB-75; 1.48 µM (inactive) with SW-620; 2.28 µM (inactive) with UACC-62. For the same compound, in the assay on UO-31, the GI50 was 0.335 µM (active).

The record behind these values is ChEMBL document CHEMBL1201862, “PubChem BioAssay data set” (2004).
